Data published in patent US20140024576A1, “HEPTOSE DERIVATIVES FOR USE IN THE TREATMENT OF BACTERIAL INFECTIONS” (priority 2010, published 2014).
pIC50: −log10 of the molar value.

Columns and labels:
GmhA of E. coli = GmhA of E. coli (Escherichia coli, UniProt P63224); experiment: Inhibition of the enzymatic activity of GmhA (luminescent assay); type: biochemical
Description: Inhibition of the Enzymatic Activity of GmhA (Luminescent Assay):
The assay buffer “AB” contained 50 mM Hepes pH7.5, 1 mM MnCl2, 25 mM KCl, 0.012% Triton-X100 and 1 mM dithiothreitol (DTT) and 0.1 μM Myelin basic protein (MBP). The following components were added in a white polystyrene Costar plate up to a final volume of 30 μL: 10 μL inhibitor dissolved in DMSO/water 50/50, and 20 μL GmhA of E. coli in AB. After 30 min of pre-incubation at room temperature, 30 μL of Substrates mix in AB were added in each well to a final volume of 60 μL. This reaction mixture was then composed of 2 nM GmhA, 3 μM sedoheptulose-7-phosphate (Sigma), 3 μM ATP (Sigma) and 50 nM HldE of E. coli in assay buffer. After 30 min of incubation at room temperature, 100 μL of the revelation mix were added to a final volume of 160 μL, including the following constituents at the respective final concentrations: 10000 light units/ml luciferase (Sigma), 20 μM D-luciferin (Sigma), 100 μM N-acetylcysteamine (Aldrich). Luminescence intensity was immediately measured on Luminoskan (Thermofischer) and converted into inhibition percentages. For IC50 determinations, the inhibitor was tested at 6 to 10 different concentrations, and the related inhibitions were fitted to a classical langmuir equilibrium model using XLFIT (IDBS).

HldE of E. coli (HldE-K) = HldE of E. coli (HldE-K) (Escherichia coli, UniProt P76658); experiment: Inhibition of the enzymatic activity of HldE-K (luminescent assay on kinase activity); type: biochemical
Description: Inhibition of the Enzymatic Activity of HldE-K (Luminescent Assay On Kinase Activity):
The assay buffer “AB” contained 50 mM Hepes pH7.5, 1 mM MnCl2, 25 mM KCl, 0.012% Triton-X100 and 1 mM dithiothreitol (DTT) and 0.1 μM Myelin basic protein (MBP). The following components were added in a white polystyrene Costar plate up to a final volume of 30 μL: 10 μL inhibitor dissolved in DMSO/water 50/50, and 20 μL HldE of E. coli in AB. After 30 min of pre-incubation at room temperature, 30 μL of Substrates mix in AB were added in each well to a final volume of 60 μL. This reaction mixture was then composed of 3 nM HldE, 0.2 μM β-heptose-7-phosphate (custom synthesis) and 0.2 μM ATP (Sigma) in assay buffer. After 30 min of incubation at room temperature, 200 μL of the revelation mix were added to a final volume of 260 µL, including the following constituents at the respective final concentrations: 5000 light units/ml luciferase (Sigma), 30 μM D-luciferin (Sigma), 100 μM N-acetylcysteamine (Aldrich). Luminescence intensity was immediately measured on Luminoskan (Thermofischer) and converted into inhibition percentages. For IC50 determinations, the inhibitor was tested at 6 to 10 different concentrations, and the related inhibitions were fitted to a classical Langmuir equilibrium model using XLFIT (IDBS).

Sequence of HldE of E. coli (HldE-K) (P76658 whole entry): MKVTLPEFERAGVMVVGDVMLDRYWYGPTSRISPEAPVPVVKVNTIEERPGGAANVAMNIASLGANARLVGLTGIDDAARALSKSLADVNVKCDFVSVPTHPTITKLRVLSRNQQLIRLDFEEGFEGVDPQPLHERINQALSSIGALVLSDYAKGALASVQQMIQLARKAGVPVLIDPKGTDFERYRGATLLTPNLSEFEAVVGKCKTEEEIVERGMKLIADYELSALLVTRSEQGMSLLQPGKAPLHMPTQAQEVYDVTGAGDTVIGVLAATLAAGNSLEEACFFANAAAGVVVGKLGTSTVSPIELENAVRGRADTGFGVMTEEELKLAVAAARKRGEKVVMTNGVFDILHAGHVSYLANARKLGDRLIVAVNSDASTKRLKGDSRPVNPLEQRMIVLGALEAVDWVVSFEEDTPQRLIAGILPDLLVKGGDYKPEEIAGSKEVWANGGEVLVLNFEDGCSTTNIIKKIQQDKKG
Sequence of GmhA of E. coli (P63224 whole entry): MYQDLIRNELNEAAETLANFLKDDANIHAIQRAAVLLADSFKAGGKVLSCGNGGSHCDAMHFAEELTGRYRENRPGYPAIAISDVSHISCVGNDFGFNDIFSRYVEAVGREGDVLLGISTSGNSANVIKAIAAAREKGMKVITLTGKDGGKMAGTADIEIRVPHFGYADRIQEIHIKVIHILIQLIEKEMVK

Row | Compound | pIC50 (GmhA of E. coli) | pIC50 (HldE of E. coli (HldE-K))
1 | O=P(O)(O)OC[C@@H](O)[C@H]1O[C@H](F)[C@@H](O)[C@@H](O)[C@@H]1O [Example 6, α-Fluoro 7-O-phosphoryl-D-glycero-α-D-manno-heptopyranoside] | > 4.00 | > 4.00
2 | CCC[C@H]1O[C@H]([C@H](O)COP(=O)(O)O)[C@@H](O)[C@H](O)[C@@H]1O [Example 8, 1-Deoxy-1-propyl-D-glycero-α-D-manno-heptopyranose 7-phosphate] | > 4.00 | > 4.00
3 | O=P(O)(O)OC[C@@H](O)[C@H]1O[C@@](O)(CO)[C@@H](O)[C@@H](O)[C@@H]1O [Example 13, 1-C-Hydroxymethylene 7-O-phosphoryl-D-glycero-D-manno-heptopyranose] | > 4.00 | > 4.00
4 | CO[C@H]1OC([C@H](O)COP(=O)(O)O)[C@@H](O)C(O)C1O (stereo partly drawn) [Example 1, Methyl 7-O-phosphate-D-glycero-α-D-gluco-heptopyranoside] | > 4.00 | > 4.00
5 | O=P(O)(O)OC[C@@H](O)[C@H]1O[C@@H](CO)[C@@H](O)[C@@H](O)[C@@H]1O [Example 11, 1-β-C-Hydroxymethylene 1-Deoxy-7-O-phosphoryl-D-glycero-D-manno-heptopyranose] | > 4.00 | > 4.00
6 | CC1(O)OC(C(O)COP(=O)(O)O)C(O)C(O)C1O [Example 12, 1-C-Methyl 7-O-phosphoryl-D-glycero-α-D-manno-heptopyranose] | > 4.00 | > 4.00
7 | CO[C@@H]1O[C@H]([C@H](O)COP(=O)(O)O)[C@@H](O)[C@H](O)[C@@H]1O [Example 3, 1-O-Methyl-D-glycero-β-D-manno-heptopyranose 7-phosphate] | > 4.00 | –
